# Experimental data taken from patent US20250032465A1, “METHODS OF TREATING CNS DISORDERS” (HANGZHOU HIGHLIGHTLL PHARMACEUTICAL CO., LTD, priority 2021, published 2025).
# Where two headings read alike, the source gives them in different places.
# Tests used:
# JAK2 = target: T1, JAK2 (Homo sapiens, UniProt O60674); test: JAK2 biochemical test (33P-ATP filter binding, Reaction Biology); settings: read-out: Inhibition of JAK2 (IC50)
# T1 construct: purchased Reaction Biology Corp, Malvern, PA (contract testing)
# T1 sequence (O60674 whole entry): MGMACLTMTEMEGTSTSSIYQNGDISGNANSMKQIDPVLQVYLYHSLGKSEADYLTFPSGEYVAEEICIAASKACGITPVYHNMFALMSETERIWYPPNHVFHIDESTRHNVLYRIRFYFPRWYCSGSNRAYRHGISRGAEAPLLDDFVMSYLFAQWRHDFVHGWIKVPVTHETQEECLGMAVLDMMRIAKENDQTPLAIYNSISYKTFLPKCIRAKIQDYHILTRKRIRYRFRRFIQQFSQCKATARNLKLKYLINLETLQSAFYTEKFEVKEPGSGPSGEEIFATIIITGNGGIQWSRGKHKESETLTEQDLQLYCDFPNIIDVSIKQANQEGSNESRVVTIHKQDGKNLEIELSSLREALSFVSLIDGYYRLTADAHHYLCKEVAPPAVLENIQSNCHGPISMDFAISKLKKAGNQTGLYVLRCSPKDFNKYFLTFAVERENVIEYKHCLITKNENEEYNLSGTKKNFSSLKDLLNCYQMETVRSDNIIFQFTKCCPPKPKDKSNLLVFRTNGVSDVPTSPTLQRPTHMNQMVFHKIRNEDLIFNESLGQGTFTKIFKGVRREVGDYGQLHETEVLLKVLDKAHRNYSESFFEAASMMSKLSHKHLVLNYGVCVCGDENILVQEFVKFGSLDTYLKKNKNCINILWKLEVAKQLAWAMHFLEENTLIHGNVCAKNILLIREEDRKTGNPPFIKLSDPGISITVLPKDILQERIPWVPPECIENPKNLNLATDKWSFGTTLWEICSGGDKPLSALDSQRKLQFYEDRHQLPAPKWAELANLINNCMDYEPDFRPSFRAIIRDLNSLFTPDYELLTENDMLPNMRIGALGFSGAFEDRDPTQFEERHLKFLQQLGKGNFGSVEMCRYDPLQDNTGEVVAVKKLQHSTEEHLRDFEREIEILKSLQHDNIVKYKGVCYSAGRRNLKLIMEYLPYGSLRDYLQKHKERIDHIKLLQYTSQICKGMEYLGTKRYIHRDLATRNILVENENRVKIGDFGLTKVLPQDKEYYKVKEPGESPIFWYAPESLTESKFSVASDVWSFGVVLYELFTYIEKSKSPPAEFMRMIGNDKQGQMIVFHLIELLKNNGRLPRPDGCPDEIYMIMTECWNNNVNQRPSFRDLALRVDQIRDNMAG
# Method: (§1) The tests were conducted by Reaction Biology Corp, Malvern, PA (Anastassiadis et al. Nat Biotechnol. 2011; 29(11):1039-45). The step is briefly described as follows, using the basic reaction buffer: 20 mM Hepes (pH 7.5), 10 mM MgCl2, 1 mM EGTA, 0.02% Brij35, 0.02 mg/ml BSA, 0.1 mM Na3VO4, 2 mM DTT and 1% DMSO. The required cofactor was added to each kinase reaction respectively. Each reaction was performed according to the following reaction steps: 1) Preparing the designated substrate in the newly prepared basic reaction buffer; 2) Transferring the required cofactor to the above matrix solution; 3) Transferring the designated kinase to the substrate solution and mixing well slightly; 4) Transferring a compound of Formula (I) in DMSO to the kinase reaction mixture with Acoustic technique (Echo550; nanoliter range), culturing for 20 minutes at room temperature; 5) Introducing ^33P-ATP (specific activity: 10 μCi/μl) to the reaction mixture to trigger a reaction; 6) Culturing at room temperature and conducting a kinase reaction for 2 hours; 7) Plotting the reaction on P81 ion exchange paper; and 8) Testing the kinase activity with a filter binding assay. The results shown in Table 1 indicate that compounds of Formulae (I)-(III) are potent and selective TYK2/JAK1 inhibitors.
# JAK1 [1] = target: T2, JAK1 (Homo sapiens, UniProt P23458); test: JAK1 biochemical test (33P-ATP filter binding, Reaction Biology); settings: read-out: Inhibition of JAK1 (IC50)
# T2 construct: purchased Reaction Biology Corp, Malvern, PA (contract testing)
# T2 sequence (P23458 whole entry): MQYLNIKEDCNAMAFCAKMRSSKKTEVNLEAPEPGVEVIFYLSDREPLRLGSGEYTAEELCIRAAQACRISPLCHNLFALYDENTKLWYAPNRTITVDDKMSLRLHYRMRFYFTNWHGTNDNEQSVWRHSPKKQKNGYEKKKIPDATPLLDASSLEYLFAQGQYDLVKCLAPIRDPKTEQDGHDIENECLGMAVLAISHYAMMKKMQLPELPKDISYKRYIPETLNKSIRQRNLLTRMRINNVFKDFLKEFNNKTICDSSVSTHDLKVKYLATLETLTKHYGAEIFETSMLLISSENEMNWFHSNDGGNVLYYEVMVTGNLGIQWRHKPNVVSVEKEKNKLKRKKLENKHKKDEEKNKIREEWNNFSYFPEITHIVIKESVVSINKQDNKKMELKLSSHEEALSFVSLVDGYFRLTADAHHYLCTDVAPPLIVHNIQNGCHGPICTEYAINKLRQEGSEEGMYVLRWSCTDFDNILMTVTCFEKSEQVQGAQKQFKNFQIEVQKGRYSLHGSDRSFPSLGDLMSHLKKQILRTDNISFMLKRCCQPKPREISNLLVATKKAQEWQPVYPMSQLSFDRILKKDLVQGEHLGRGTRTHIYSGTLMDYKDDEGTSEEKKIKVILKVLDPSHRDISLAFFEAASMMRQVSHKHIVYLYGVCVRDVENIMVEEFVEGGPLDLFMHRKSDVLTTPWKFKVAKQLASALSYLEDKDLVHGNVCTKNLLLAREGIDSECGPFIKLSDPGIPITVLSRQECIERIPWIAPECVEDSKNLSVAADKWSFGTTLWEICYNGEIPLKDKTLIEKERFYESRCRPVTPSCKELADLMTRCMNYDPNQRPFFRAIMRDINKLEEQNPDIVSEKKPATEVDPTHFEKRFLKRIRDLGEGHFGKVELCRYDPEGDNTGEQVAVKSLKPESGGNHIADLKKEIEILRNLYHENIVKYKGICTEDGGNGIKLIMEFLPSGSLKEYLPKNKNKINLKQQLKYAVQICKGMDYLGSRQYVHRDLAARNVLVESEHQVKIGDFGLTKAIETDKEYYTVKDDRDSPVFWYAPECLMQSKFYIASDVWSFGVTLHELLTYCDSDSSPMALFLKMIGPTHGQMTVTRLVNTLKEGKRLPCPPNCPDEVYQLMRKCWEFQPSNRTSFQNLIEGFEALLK
# Method: as §1
# TYK2 [2] = target: T3, TYK2 (Homo sapiens, UniProt P29597); test: TYK2 biochemical test (33P-ATP filter binding, Reaction Biology); settings: read-out: Inhibition of TYK2 (IC50)
# T3 construct: purchased Reaction Biology Corp, Malvern, PA (contract testing)
# T3 sequence (P29597 whole entry): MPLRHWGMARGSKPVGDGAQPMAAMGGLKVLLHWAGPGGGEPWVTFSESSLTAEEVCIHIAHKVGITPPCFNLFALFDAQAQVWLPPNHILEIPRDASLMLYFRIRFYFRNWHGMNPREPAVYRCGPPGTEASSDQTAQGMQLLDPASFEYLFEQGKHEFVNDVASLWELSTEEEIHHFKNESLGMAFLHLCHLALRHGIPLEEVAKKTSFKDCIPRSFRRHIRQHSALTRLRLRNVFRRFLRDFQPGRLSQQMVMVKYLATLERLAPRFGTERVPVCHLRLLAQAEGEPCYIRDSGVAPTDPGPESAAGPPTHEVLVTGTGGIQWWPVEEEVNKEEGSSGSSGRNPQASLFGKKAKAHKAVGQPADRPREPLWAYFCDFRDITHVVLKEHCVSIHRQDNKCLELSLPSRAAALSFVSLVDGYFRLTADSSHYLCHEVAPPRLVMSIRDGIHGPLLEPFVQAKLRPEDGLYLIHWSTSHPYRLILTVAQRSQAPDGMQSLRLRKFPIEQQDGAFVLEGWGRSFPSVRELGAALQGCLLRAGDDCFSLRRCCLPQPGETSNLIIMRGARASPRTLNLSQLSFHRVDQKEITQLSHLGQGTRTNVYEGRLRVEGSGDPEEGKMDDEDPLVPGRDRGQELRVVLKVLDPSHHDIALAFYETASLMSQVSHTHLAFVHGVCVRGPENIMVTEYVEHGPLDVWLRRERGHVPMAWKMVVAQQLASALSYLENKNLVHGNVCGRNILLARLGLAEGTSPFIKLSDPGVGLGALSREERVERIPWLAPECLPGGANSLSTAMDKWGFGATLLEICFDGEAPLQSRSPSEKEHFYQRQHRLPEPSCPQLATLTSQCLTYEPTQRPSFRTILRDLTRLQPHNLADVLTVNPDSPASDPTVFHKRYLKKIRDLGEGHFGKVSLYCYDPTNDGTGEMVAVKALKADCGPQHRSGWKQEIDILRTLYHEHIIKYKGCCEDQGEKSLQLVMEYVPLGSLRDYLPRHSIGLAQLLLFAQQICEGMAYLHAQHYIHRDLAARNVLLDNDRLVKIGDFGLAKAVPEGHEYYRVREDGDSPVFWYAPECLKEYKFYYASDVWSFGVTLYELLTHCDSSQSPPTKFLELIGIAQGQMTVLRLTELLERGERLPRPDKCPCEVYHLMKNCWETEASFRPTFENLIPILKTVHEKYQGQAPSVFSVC
# Method: as §1
# TYK2 [3] = target: T3, TYK2; test: TYK2 cellular ELISA assay using NK92 cells (IL-12 and IL-18 stimulated IFNγ excretion); assay type: cell-based; settings: IL-12 2 ng/ml, IL-18 5 ng/ml, 24 hours
# Method: This testing was performed to test cellular TYK2 activity using IL-12 and IL-18 stimulated IFNγ excretion assay in NK92 cells. The testing was performed according to the following procedure: 1) Replace NK92 cell media containing IL-2 with media not containing IL-2, maintain overnight; 2) Plate NK92 cells to 96-well plate at density of ˜150,000 cell/well; 3) Add different concentrations of test article to wells, maintain in incubator at 37° C. and 5% CO2 for 1 hour; 4) Add IL-12 (final concentration: 2 ng/ml) and IL-18 (final concentration: 5 ng/ml) to stimulate for 24 hours in the above incubator; 5) After 24 hours, centrifuge at 2000 rpm for 5 min, take the supernatant and analyze according to instructions of the ELISA kit. In this assay, compounds of Formulae (II) and (III) had IC50<100 nM.
# JAK1 [4] = target: T2, JAK1; test: JAK1 cellular ELISA assay using PBMC cells (IL-6 stimulated STAT3 phosphorylation); assay type: cell-based; settings: IL-6 100 ng/ml, 25 min
# Method: This testing was performed to test cellular JAK1 activity using the IL-6 stimulated STAT3 phosphorylation assay in PBMC cells. The testing was performed according to the following procedure: 1) Plate PBMC cells to 96-well plate at density of ˜300,000 cell/well; 2) Add different concentrations of test article to wells, maintain in incubator at 37° C. and 5% CO2 for 1 hour; 3) Add IL-6 (final concentration: 100 ng/ml) to stimulate for 25 min in the above incubator; 4) After stimulation, transfer the suspension to 1.5 mL tube, centrifuge at 200 g for 5 min, collect cells, add 100 μL 1× lysate, lyse on ice for 1 hour; 5) Centrifuge at 4° C. and 12000 rpm for 10 min, take the supernatant and analyze according to instructions of the ELISA kit. In this assay, compounds of Formulae (II) and (III) had IC50<300 nM.
# [5] = Brain penetration in mice; assay type: in vivo, C57BL/6 mice; settings: male, mouse, 30 mg/kg oral gavage, 4-hour post-dosing
# Method: This testing was performed to test the ability of compounds to penetrate the blood-brain-barrier in mice. The testing was performed according to the following procedure: 1) for each compound, take 3 male C57BL/6 mice with body weight of 17-18 g, formulate compound using 0.5% HPMC/water suspension at concentration of 3 mg/ml; 2) After fasting overnight, administer compound at 30 mg/kg by oral gavage; 3) Take plasma samples at 1, 2, 4 hours post-dosing; 4) At 4-hour post-dosing, also take brain tissues and cerebrospinal fluid (CSF) fluid; 5) Analyze compound concentration in plasma, brain tissue, and CSF fluid using LC-MS/MS method.
# JAK3 = target: T4, JAK3 (Homo sapiens, UniProt P52333); test: JAK3 biochemical test (33P-ATP filter binding, Reaction Biology); settings: read-out: Inhibition of JAK3 (IC50)
# T4 construct: purchased Reaction Biology Corp, Malvern, PA (contract testing)
# T4 sequence (P52333 1-1124): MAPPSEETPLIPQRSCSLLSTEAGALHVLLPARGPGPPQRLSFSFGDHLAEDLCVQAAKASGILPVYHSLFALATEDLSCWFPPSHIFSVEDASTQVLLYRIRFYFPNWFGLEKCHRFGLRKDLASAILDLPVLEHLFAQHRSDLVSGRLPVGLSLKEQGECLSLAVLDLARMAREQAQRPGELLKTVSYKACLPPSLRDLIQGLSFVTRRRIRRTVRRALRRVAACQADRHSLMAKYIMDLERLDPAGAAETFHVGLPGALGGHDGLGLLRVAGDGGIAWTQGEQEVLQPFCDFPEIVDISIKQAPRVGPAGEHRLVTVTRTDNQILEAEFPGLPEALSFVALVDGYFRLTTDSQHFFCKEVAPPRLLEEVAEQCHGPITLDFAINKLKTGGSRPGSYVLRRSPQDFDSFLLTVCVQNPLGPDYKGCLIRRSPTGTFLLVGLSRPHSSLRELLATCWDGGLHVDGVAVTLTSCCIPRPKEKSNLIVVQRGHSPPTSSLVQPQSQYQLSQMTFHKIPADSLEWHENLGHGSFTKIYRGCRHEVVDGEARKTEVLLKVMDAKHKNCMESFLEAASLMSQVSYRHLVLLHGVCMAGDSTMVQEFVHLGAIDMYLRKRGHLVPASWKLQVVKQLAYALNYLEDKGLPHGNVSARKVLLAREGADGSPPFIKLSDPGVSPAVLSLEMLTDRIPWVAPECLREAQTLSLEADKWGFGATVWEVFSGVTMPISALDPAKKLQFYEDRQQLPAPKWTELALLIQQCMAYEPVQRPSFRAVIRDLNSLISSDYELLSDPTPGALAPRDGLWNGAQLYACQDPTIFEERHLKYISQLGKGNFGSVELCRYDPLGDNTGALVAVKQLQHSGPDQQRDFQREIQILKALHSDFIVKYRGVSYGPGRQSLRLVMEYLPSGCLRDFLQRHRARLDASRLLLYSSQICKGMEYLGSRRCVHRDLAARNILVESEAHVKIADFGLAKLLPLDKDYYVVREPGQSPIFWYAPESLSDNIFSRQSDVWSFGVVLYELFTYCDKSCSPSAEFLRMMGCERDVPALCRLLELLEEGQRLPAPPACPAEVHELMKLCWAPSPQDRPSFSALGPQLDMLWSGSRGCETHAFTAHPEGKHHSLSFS
# Method: as §1
# [6] = Brain penetration in rats; assay type: in vivo; settings: male, rat, 10 mg/kg oral gavage, 8 hour post-dosing
# Method: This testing was performed to test the ability of compounds to penetrate the blood-brain-barrier in rats. The testing was performed according to the following procedure: 1) For each compound, take 3 male rats with body weight of 217-228 g, formulate compound using 0.5% HPMC/water suspension at concentration of 1 mg/ml; 2) After fasting overnight, administer compound at 10 mg/kg by oral gavage; 3) Take plasma samples at 1, 2, 4, 8 hours post-dosing; 4) At 8 hour post-dosing, also take brain tissues and cerebrospinal fluid (CSF); 5) Analyze compound concentration in plasma, brain tissue, and CSF using LC-MS/MS method.
SMILES,IC50 (JAK2) [nM],IC50 (JAK1 [1]) [nM],IC50 (TYK2 [2]) [nM],IC50 (TYK2 [3]) [nM],IC50 (JAK1 [4]) [nM],"Kp at 4 h ([5]; C57BL/6, CSF/plasma, read-out: CSF (ng/ml)/ Plasma (ng/ml))","Kp at 4 h ([5]; C57BL/6, brain/plasma, read-out: Brain (ng/ml)/ Plasma (ng/ml))",IC50 (JAK3) [nM],"Kp at 8 h ([6]; CSF/plasma, read-out: CSF (ng/ml)/ Plasma (ng/ml))","Kp at 8 h ([6]; brain/plasma, read-out: Brain (ng/ml)/ Plasma (ng/ml))"
CCc1nc2cnc3ccoc3c2n1[C@H]1CC[C@H](CC#N)OC1 [Formula (I)],> 200,< 10,< 100,,,,,,,
Cc1nc2cnc3ccoc3c2n1[C@H]1CC[C@H](CC#N)CC1 [Formula (III)],> 20,< 10,< 10,< 100,< 300,> 0.15,> 0.3,> 100,> 0.15,> 0.4
